In PubChem BioAssay AID1963972 (Molecular Pharmacology Branch, DTP, NCI, 2024):
Each block holds one molecule with its values, some of them ahead of it.

System: 945468-187-T-J2-PDC spheroids viability
Experiment: Anticancer human tumor 945468-187-T-J2-PDC patient-derived rectal carcinoma cell line growth inhibition [PI3K]
Settings: spheroids with HUVEC and MSC; for IC50: curve of first compound; for viability, T/C: stronger effect = lower value
Outline: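 Tumor cells grown as multi-cell spheroids with HUVEC endothelial cells and MSC fibroblast-like stroma were treated with targeted agents combined with inavolisib, alpelisib, duvelisib or copanlisib. Doses fell in half-log steps from near clinical Cmax, else from 10 microM. Viability was measured.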

[1] = second compound 0.00316 µM, first compound 0.0316 µM
[2] = second compound 0.00316 µM, first compound 0.1 µM
[3] = second compound 0.01 µM, first compound 0.0316 µM
[4] = second compound 0.01 µM, first compound 0.1 µM
[5] = second compound 0.0316 µM, first compound 0.0316 µM
[6] = second compound 0.0316 µM, first compound 0.1 µM
[7] = second compound 0.0316 µM, first compound 0.316 µM
[8] = second compound 0.0316 µM, first compound 1 µM
[9] = second compound 0.0316 µM, first compound 3.16 µM
[10] = second compound 0.0316 µM, first compound 10 µM
[11] = second compound 0.1 µM, first compound 0.0316 µM
[12] = second compound 0.1 µM, first compound 0.1 µM
[13] = second compound 0.1 µM, first compound 0.316 µM
[14] = second compound 0.1 µM, first compound 1 µM
[15] = second compound 0.1 µM, first compound 3.16 µM
[16] = second compound 0.1 µM, first compound 10 µM
[17] = second compound 0.316 µM, first compound 0.0316 µM
[18] = second compound 0.316 µM, first compound 0.1 µM
[19] = second compound 0.316 µM, first compound 0.316 µM
[20] = second compound 0.316 µM, first compound 1 µM
[21] = second compound 0.316 µM, first compound 3.16 µM
[22] = second compound 0.316 µM, first compound 10 µM
[23] = second compound 1 µM, first compound 0.0316 µM
[24] = second compound 1 µM, first compound 0.1 µM
[25] = second compound 1 µM, first compound 0.316 µM
[26] = second compound 1 µM, first compound 1 µM
[27] = second compound 1 µM, first compound 3.16 µM
[28] = second compound 1 µM, first compound 10 µM
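Also: spheroids exposed to compounds for seven days before reading.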

IC50 (second compound 0.00316 µM): > 10 µM
IC50 (second compound 0.01 µM): > 10 µM
IC50 (second compound 0.0316 µM): > 10 µM
IC50 (second compound 0.1 µM): > 10 µM
IC50 (second compound 0.316 µM): < 0.0316 µM
IC50 (second compound 1 µM): < 0.0316 µM
SMILES: CC(Cn1ccc(-c2ccc(C#N)c(Cl)c2)n1)NC(=O)c1cc(C(C)O)[nH]n1 (stereo unspecified) + COc1c(OCCCN2CCOCC2)ccc2c3n(c(=NC(=O)c4cnc(N)nc4)nc12)CCN3
viability, T/C [1]: 85.6%
viability, T/C [2]: 112%
viability, T/C (second compound 0.00316 µM, first compound 0.316 µM): 124%
viability, T/C (second compound 0.00316 µM, first compound 1 µM): 94.6%
viability, T/C (second compound 0.00316 µM, first compound 3.16 µM): 92.2%
viability, T/C (second compound 0.00316 µM, first compound 10 µM): 114%
viability, T/C [3]: 91.3%
viability, T/C [4]: 104%
viability, T/C (second compound 0.01 µM, first compound 0.316 µM): 117%
viability, T/C (second compound 0.01 µM, first compound 1 µM): 115%
viability, T/C (second compound 0.01 µM, first compound 3.16 µM): 105%
viability, T/C (second compound 0.01 µM, first compound 10 µM): 108%
viability, T/C [5]: 90.7%
viability, T/C [6]: 114%
viability, T/C [7]: 113%
viability, T/C [8]: 101%
viability, T/C [9]: 108%
viability, T/C [10]: 89.3%
viability, T/C [11]: 79.4%
viability, T/C [12]: 95%
viability, T/C [13]: 81.5%
viability, T/C [14]: 94.3%
viability, T/C [15]: 84.8%
viability, T/C [16]: 87%
viability, T/C [17]: 40.8%
viability, T/C [18]: 33.2%
viability, T/C [19]: 49%
viability, T/C [20]: 39.2%
viability, T/C [21]: 42.5%
viability, T/C [22]: 48.1%
viability, T/C [23]: 21.3%
viability, T/C [24]: 23.5%
viability, T/C [25]: 22.9%
viability, T/C [26]: 22%
viability, T/C [27]: 24.3%
viability, T/C [28]: 25.2%

IC50 (second compound 0.00316 µM): > 0.1 µM
IC50 (second compound 0.01 µM): > 0.1 µM
IC50 (second compound 0.0316 µM): > 0.1 µM
IC50 (second compound 0.1 µM): > 0.1 µM
IC50 (second compound 0.316 µM): > 0.1 µM
IC50 (second compound 1 µM): > 0.1 µM
SMILES: Cn1ncnc1[C@H]1c2n[nH]c(=O)c3cc(F)cc(c23)N[C@@H]1c1ccc(F)cc1 + CC(Nc1ccc2c(c1)OCCn1cc(N3C(=O)OCC3C(F)F)nc1-2)C(N)=O
viability, T/C (second compound 0.00316 µM, first compound 0.000316 µM): 103%
viability, T/C (second compound 0.00316 µM, first compound 0.001 µM): 114%
viability, T/C (second compound 0.00316 µM, first compound 0.00316 µM): 105%
viability, T/C (second compound 0.00316 µM, first compound 0.01 µM): 86.6%
viability, T/C [1]: 92.6%
viability, T/C [2]: 99.7%
viability, T/C (second compound 0.01 µM, first compound 0.000316 µM): 131%
viability, T/C (second compound 0.01 µM, first compound 0.001 µM): 99.1%
viability, T/C (second compound 0.01 µM, first compound 0.00316 µM): 107%
viability, T/C (second compound 0.01 µM, first compound 0.01 µM): 84.5%
viability, T/C [3]: 110%
viability, T/C [4]: 123%
viability, T/C (second compound 0.0316 µM, first compound 0.000316 µM): 129%
viability, T/C (second compound 0.0316 µM, first compound 0.001 µM): 139%
viability, T/C (second compound 0.0316 µM, first compound 0.00316 µM): 100%
viability, T/C (second compound 0.0316 µM, first compound 0.01 µM): 98.8%
viability, T/C [5]: 96.3%
viability, T/C [6]: 123%
viability, T/C (second compound 0.1 µM, first compound 0.000316 µM): 87.6%
viability, T/C (second compound 0.1 µM, first compound 0.001 µM): 112%
viability, T/C (second compound 0.1 µM, first compound 0.00316 µM): 96.8%
viability, T/C (second compound 0.1 µM, first compound 0.01 µM): 89.1%
viability, T/C [11]: 118%
viability, T/C [12]: 102%
viability, T/C (second compound 0.316 µM, first compound 0.000316 µM): 82.3%
viability, T/C (second compound 0.316 µM, first compound 0.001 µM): 103%
viability, T/C (second compound 0.316 µM, first compound 0.00316 µM): 100%
viability, T/C (second compound 0.316 µM, first compound 0.01 µM): 88%
viability, T/C [17]: 99.7%
viability, T/C [18]: 99.6%
viability, T/C (second compound 1 µM, first compound 0.000316 µM): 77.1%
viability, T/C (second compound 1 µM, first compound 0.001 µM): 84.3%
viability, T/C (second compound 1 µM, first compound 0.00316 µM): 75.9%
viability, T/C (second compound 1 µM, first compound 0.01 µM): 84.9%
viability, T/C [23]: 79.2%
viability, T/C [24]: 77.2%

IC50 (second compound 0.0316 µM): > 10 µM
IC50 (second compound 0.1 µM): > 10 µM
IC50 (second compound 0.316 µM): > 10 µM
IC50 (second compound 1 µM): > 10 µM
IC50 (second compound 3.16 µM): > 10 µM
IC50 (second compound 10 µM): > 10 µM
SMILES: CC(C)NCC(C(=O)N1CCN(c2ncnc3c2C(C)CC3O)CC1)c1ccc(Cl)cc1 (stereo unspecified) + Cc1nc(NC(=O)N2CCCC2C(N)=O)sc1-c1ccnc(C(C)(C)C(F)(F)F)c1
viability, T/C [5]: 110%
viability, T/C [6]: 138%
viability, T/C [7]: 140%
viability, T/C [8]: 110%
viability, T/C [9]: 108%
viability, T/C [10]: 96.8%
viability, T/C [11]: 111%
viability, T/C [12]: 109%
viability, T/C [13]: 125%
viability, T/C [14]: 103%
viability, T/C [15]: 106%
viability, T/C [16]: 115%
viability, T/C [17]: 99%
viability, T/C [18]: 117%
viability, T/C [19]: 99.7%
viability, T/C [20]: 87.8%
viability, T/C [21]: 119%
viability, T/C [22]: 98.4%
viability, T/C [23]: 106%
viability, T/C [24]: 119%
viability, T/C [25]: 109%
viability, T/C [26]: 88.6%
viability, T/C [27]: 121%
viability, T/C [28]: 98.6%
viability, T/C (second compound 3.16 µM, first compound 0.0316 µM): 79.6%
viability, T/C (second compound 3.16 µM, first compound 0.1 µM): 90.4%
viability, T/C (second compound 3.16 µM, first compound 0.316 µM): 103%
viability, T/C (second compound 3.16 µM, first compound 1 µM): 95.8%
viability, T/C (second compound 3.16 µM, first compound 3.16 µM): 81.5%
viability, T/C (second compound 3.16 µM, first compound 10 µM): 98.2%
viability, T/C (second compound 10 µM, first compound 0.0316 µM): 95.8%
viability, T/C (second compound 10 µM, first compound 0.1 µM): 76.9%
viability, T/C (second compound 10 µM, first compound 0.316 µM): 73.6%
viability, T/C (second compound 10 µM, first compound 1 µM): 88.5%
viability, T/C (second compound 10 µM, first compound 3.16 µM): 93.8%
viability, T/C (second compound 10 µM, first compound 10 µM): 82.5%
